# Laboratory results: publication PMC3528345 (Cancer research, 2012)
# Biological target: PARP1 (Gallus gallus, UniProt P26446)
# Sequence (P26446 whole entry): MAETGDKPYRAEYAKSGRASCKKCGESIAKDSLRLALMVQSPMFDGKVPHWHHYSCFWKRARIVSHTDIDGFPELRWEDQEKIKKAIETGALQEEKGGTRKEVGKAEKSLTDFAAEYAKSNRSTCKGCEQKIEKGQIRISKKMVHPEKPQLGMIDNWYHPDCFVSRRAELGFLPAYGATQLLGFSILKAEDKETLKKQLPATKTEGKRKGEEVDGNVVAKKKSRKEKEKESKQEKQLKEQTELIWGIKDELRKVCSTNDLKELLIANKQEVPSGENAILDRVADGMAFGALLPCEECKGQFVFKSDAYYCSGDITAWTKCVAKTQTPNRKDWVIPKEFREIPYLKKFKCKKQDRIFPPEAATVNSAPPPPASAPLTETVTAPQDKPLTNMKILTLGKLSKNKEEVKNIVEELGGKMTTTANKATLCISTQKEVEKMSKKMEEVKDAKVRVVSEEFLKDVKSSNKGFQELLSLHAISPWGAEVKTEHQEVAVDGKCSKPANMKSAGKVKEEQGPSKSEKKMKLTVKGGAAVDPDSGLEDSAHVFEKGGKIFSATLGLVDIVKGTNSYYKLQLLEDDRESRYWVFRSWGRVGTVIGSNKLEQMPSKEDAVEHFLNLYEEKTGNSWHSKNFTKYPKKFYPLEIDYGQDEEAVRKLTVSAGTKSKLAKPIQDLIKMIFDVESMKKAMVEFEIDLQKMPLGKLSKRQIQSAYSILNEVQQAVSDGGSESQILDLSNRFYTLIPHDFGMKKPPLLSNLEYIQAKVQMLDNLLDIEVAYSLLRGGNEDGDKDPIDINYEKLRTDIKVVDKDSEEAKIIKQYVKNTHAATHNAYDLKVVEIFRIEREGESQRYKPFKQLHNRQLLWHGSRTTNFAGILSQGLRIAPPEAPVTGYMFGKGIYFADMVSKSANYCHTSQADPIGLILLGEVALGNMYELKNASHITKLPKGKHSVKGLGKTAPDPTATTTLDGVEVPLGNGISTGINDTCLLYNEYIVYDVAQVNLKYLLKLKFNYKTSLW
row,SMILES,IC50
1,NC(=O)c1cccc2cn(-c3ccc([C@@H]4CCCNC4)cc3)nc12 [MK-4827],50.5 nM
2,C[C@]1(c2nc3c(C(N)=O)cccc3[nH]2)CCCN1 [veliparib],10.5 nM
